Source: the supplement of paper PMC10307832

Key:
Test in all cases: relative viability (nuclei count vs DMSO), 5 days (fraction); higher = more cells survive
Cediranib + Lapatinib = compound: COc1cc2c(Oc3ccc4[nH]c(C)cc4c3F)ncnc2cc1OCCCN1CCCC1 [Cediranib] + CS(=O)(=O)CCNCc1ccc(-c2ccc3ncnc(Nc4ccc(OCc5cccc(F)c5)c(Cl)c4)c3c2)o1 [Lapatinib] (partner 2 µM)
Outline: (§1)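 Dosing by pin tool came one day after lung cancer cell lines were seeded in 1536-well plates, using either one drug or a fixed anchor-drug dose plus five library-drug doses (not always all listed) in √10 steps. After 5 days, nuclei were counted on 4× images. Relative viability is treated-well nuclei count divided by vehicle-well nuclei count, and values are medians of duplicate plates.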

Cediranib + Linsitinib = compound: COc1cc2c(Oc3ccc4[nH]c(C)cc4c3F)ncnc2cc1OCCCN1CCCC1 [Cediranib] + C[C@]1(O)C[C@@H](c2nc(-c3ccc4ccc(-c5ccccc5)nc4c3)c3c(N)nccn32)C1 [Linsitinib] (partner 1 µM)
Outline: as §1

[1] = compound: O=C(C[C@H]1NCCC[C@@H]1O)Cn1cnc2cc(Br)c(Cl)cc2c1=O (racemic) [Halofuginone] + CC(=O)Nc1cccc(-n2c(=O)n(C3CC3)c(=O)c3c(Nc4ccc(I)cc4F)n(C)c(=O)c(C)c32)c1 [Trametinib] (partner 0.02 µM)
Outline: as §1

[2] = compound: O=C(C[C@H]1NCCC[C@@H]1O)Cn1cnc2cc(Br)c(Cl)cc2c1=O (racemic) [Halofuginone] + O=C(CCCCCCC(=O)Nc1ccccc1)NO [Vorinostat] (partner 1 µM)
Outline: as §1

## UMC-11
Cediranib + Lapatinib; first compound 0.04 µM
  relative viability: 1.07
Cediranib + Lapatinib; first compound 0.1265 µM
  relative viability: 0.48
Cediranib + Lapatinib; first compound 0.4 µM
  relative viability: 0.938
Cediranib + Lapatinib; first compound 1.265 µM
  relative viability: 0.525
Cediranib + Lapatinib; first compound 4 µM
  relative viability: 0.963
Cediranib + Linsitinib; first compound 0.04 µM
  relative viability: 1.06
Cediranib + Linsitinib; first compound 0.1265 µM
  relative viability: 1.02
Cediranib + Linsitinib; first compound 0.4 µM
  relative viability: 0.955
Cediranib + Linsitinib; first compound 1.265 µM
  relative viability: 0.957
Cediranib + Linsitinib; first compound 4 µM
  relative viability: 0.934
[1]; first compound 0.001 µM
  relative viability: 0.8
[1]; first compound 0.003162 µM
  relative viability: 0.791
[1]; first compound 0.01 µM
  relative viability: 0.782
[1]; first compound 0.03162 µM
  relative viability: 0.603
[1]; first compound 0.1 µM
  relative viability: 0.456
[2]; first compound 0.001 µM
  relative viability: 0.428
[2]; first compound 0.003162 µM
  relative viability: 0.381
[2]; first compound 0.01 µM
  relative viability: 0.348
[2]; first compound 0.03162 µM
  relative viability: 0.334
[2]; first compound 0.1 µM
  relative viability: 0.205
